Assay in all cases: microbe, parasite or virus in culture
What all share (conditions): variant bovis BCG, 3 h

For assay [1], the system named is Mycobacterium tuberculosis.
Assay [2] has as its system Mycobacterium tuberculosis. This is another data set of the same source.
The subject of assay [3] is Mycobacterium tuberculosis. The source holds these as a separate data set.

Molecules are shown by their SMILES. In brackets after ≈: the same amount, converted by molar mass.

Broadly, the IC50 is the midpoint of a concentration-inhibition curve. Lower therefore signals greater potency. For the compound `CO[C@H]1/C=C/O[C@@]2(C)Oc3c(C)c(O)c4c(O)c(c(/C=N/N5CCN(C)CC5)c(O)c4c3C2=O)NC(=O)/C(C)=C\C=C\[C@H](C)[C@H](O)[C@@H](C)[C@@H](O)[C@@H](C)[C@H](OC(C)=O)[C@@H]1C` [RIFAMPIN], the IC50 turned out to be 2.9 µg/mL (≈ 3.52 µM) in assay [1] and 2 µg/mL (≈ 2.43 µM) in assay [2].
For `C[C@@H]1CN(c2c(F)c(N)c3c(=O)c(C(=O)O)cn(C4CC4)c3c2F)C[C@H](C)N1` [SPARFLOXACIN], the 50% inhibitory concentration (IC50) in assay [3] was found to be 16.7 µg/mL (≈ 42.6 µM); in assay [1] it was 7.3 µg/mL (≈ 18.6 µM); in assay [2] it was 11.4 µg/mL (≈ 29.1 µM).
In assay [2], `O=C(N[C@H](CO)[C@H](O)c1ccc([N+](=O)[O-])cc1)C(Cl)Cl` [CHLORAMPHENICOL] showed an IC50 of 5.6 µg/mL (≈ 17.3 µM).
